{"source": "paper PMC8568530", "about": "“Inhibition of Vascular Smooth Muscle and Cancer Cell Proliferation by New VEGFR Inhibitors and Their Immunomodulator Effect: Design, Synthesis, and Biological Evaluation” (Oxidative Medicine and Cellular Longevity, 2021)", "key": {"HepG-2": {"test_system": "HepG-2", "test": "MTT antiproliferative assay, HepG-2", "assay_type": "cell-based", "settings": "Homo sapiens, HepG2, hepatocellular carcinoma HepG-2", "description": "(§1) The in vitro antiproliferative activities of the newly synthesized compounds were evaluated against a panel of three human tumor cell lines, namely, breast cancer (MCF-7), hepatocellular carcinoma (HepG-2), and colorectal carcinoma (HCT-116) using the standard MTT method. The tested cell lines were selected depending on their VEGF overexpression. Sorafenib, the lead drug, was coassayed as a positive control.\n(§2) The antiproliferative activity of the synthesized compounds was evaluated using MTT protocol as described (Supplementary data (available here))."}, "HCT-116": {"test_system": "HCT-116", "test": "MTT antiproliferative assay, HCT-116", "assay_type": "cell-based", "settings": "Homo sapiens, colorectal carcinoma HCT-116", "description": "as §1, §2"}, "[1]": {"test_system": "MCF-7, HepG-2, and HCT-116", "test": "MTT antiproliferative assay, panel of three tumor cell lines (range over lines)", "assay_type": "cell-based", "settings": "Homo sapiens, range over the three cancer cell lines, read-out: cytotoxic IC50, range over MCF-7, HepG-2 and HCT-116", "description": "as §1, §2"}, "[2]": {"test_system": "WI-38 cell line (normal human lung fibroblasts)", "test": "MTT cytotoxicity against normal cells WI-38", "assay_type": "cell-based", "settings": "normal human lung fibroblasts WI-38", "description": "The cytotoxicity values of the synthesized compounds against the WI-38 cell line (normal human lung fibroblasts) were also evaluated in vitro.\nas §2"}, "MCF-7": {"test_system": "MCF-7", "test": "MTT antiproliferative assay, MCF-7", "assay_type": "cell-based", "settings": "Homo sapiens, MCF7, breast cancer MCF-7", "description": "as §1, §2"}, "caspase-3": {"test_system": "caspase-3", "test": "Active caspase-3 level in HepG-2 cells", "assay_type": "cell-based, human", "settings": "for Caspase 3 Conc.: HepG-2 cells treated with compound; for Caspase 3 Fold: HepG-2 cells, versus control", "excerpt": "(1) Effects on the Levels of Active Caspase-3. A significant mechanism by which anticancer agents can affect cancer cells is apoptosis. Apoptosis is a process of automated cell death. The apoptosis mechanism is typically mediated by a group of proteases called caspases. Caspase-3 is activated in every mammalian cell type provoking the cell to die, considered one of the apoptosis marks.\n(1) Effects on the Levels of Active Caspase-3. […] (Supplementary data)."}, "BAX": {"test_system": "BAX", "test": "BAX level in HepG-2 cells", "assay_type": "cell-based, human", "settings": "for BAX Conc.: HepG-2 cells treated with compound; for BAX Fold: HepG-2 cells, versus control", "excerpt": "(§3) (2) Effects on Bcl-2 Family Proteins. The Bcl-2 family proteins are vital regulators of apoptosis cell death. Members of this family include the proapoptotic factor Bax which promotes cell death and the prosurvival (antiapoptotic) Bcl-2 which suppresses cell death. […] Results are expressed in Table 3.\n(§4) (2) Effects on Bcl-2 Family Proteins. […] (Supplementary data)."}, "VEGFR-2": {"target": "VEGFR-2 (Homo sapiens, UniProt P35968)", "sequence (P35968 20-1356)": "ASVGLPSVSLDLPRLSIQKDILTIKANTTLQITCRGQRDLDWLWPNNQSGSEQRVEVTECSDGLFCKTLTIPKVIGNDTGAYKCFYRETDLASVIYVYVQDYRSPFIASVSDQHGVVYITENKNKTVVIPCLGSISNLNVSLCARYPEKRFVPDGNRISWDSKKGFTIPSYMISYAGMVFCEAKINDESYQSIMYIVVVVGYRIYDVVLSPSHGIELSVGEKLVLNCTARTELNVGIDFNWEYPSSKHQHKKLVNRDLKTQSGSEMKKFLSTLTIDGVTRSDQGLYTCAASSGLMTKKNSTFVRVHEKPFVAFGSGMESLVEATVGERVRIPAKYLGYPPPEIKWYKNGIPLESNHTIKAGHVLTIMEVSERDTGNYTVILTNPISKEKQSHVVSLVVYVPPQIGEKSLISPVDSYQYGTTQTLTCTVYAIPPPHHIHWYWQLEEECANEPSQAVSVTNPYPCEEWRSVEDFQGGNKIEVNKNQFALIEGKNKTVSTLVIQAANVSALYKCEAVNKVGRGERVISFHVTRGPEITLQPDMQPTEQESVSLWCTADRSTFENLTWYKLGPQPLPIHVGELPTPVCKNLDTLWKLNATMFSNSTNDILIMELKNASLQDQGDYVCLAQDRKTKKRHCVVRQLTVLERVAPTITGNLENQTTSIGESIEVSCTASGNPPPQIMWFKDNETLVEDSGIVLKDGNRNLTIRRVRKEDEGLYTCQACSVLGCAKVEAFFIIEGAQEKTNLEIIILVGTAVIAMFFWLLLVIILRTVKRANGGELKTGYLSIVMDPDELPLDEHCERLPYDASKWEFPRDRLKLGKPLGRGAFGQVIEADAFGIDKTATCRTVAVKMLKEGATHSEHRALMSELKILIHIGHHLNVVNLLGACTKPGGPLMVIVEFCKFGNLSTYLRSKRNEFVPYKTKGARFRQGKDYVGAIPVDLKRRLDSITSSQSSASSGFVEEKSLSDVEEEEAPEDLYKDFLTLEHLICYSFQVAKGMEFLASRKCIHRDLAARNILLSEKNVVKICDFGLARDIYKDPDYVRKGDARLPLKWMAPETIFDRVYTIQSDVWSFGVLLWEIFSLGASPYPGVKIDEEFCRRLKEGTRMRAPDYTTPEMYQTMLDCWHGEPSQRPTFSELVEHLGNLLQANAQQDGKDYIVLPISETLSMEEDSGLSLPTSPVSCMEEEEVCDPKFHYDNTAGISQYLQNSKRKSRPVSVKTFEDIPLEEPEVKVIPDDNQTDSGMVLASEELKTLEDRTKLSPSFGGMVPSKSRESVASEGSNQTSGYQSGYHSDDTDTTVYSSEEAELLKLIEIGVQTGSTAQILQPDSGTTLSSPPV", "test": "In vitro VEGFR-2 enzyme inhibition assay", "assay_type": "biochemical", "settings": "read-out: IC50 against VEGFR-2"}, "TNF-α": {"test_system": "TNF-α", "test": "TNF-α in HepG-2 supernatant (ELISA)", "assay_type": "cell-based, human", "excerpt": "(1) Estimation of Human Tumor Necrosis Factor Alpha (TNF-α) in HepG-2 Supernatant. […] Celecoxib, a potent inhibitor of TNF-α-induced cytokine expressions, was used as a positive control. […] Among the tested compounds, compound 7a caused a remarkably significant reduction in TNF-α levels (87%) in comparison to celecoxib (86%).\nThe levels of TNF-α in cell culture supernatants were estimated by the ELISA technique according to the reported procedure."}, "Bcl-2": {"test_system": "Bcl-2", "test": "Bcl-2 level in HepG-2 cells", "assay_type": "cell-based, human", "settings": "for Bcl-2 Conc.: HepG-2 cells treated with compound; for Bcl-2 Fold: HepG-2 cells, versus control", "excerpt": "as §3, §4"}}, "data": [{"smiles": "Cc1ccccc1NC(=O)c1ccc(NC(=O)c2cccnc2)cc1", "note": "[Compound 7f, N-(4-(o-Tolylcarbamoyl)phenyl)nicotinamide]", "values": [{"measurement": "IC50", "setting": "HepG-2", "value": 31.4, "unit": "µM"}, {"measurement": "IC50", "setting": "HCT-116", "value": 18.3, "unit": "µM"}, {"measurement": "IC50", "setting": "[1]", "value": "14.1 to 31.4", "unit": "µM"}, {"measurement": "IC50", "setting": "[2]", "value": 157, "unit": "µM"}, {"measurement": "melting point", "value": "194 to 197", "unit": "°C"}, {"measurement": "IC50", "setting": "MCF-7", "value": 20.5, "unit": "µM"}]}, {"smiles": "Cc1cccc(NC(=O)c2ccc(NC(=O)c3cccnc3)cc2)c1", "note": "[Compound 7h, N-(4-(m-Tolylcarbamoyl)phenyl)nicotinamide]", "values": [{"measurement": "IC50", "setting": "HepG-2", "value": 14.9, "unit": "µM"}, {"measurement": "IC50", "setting": "HCT-116", "value": 22.7, "unit": "µM"}, {"measurement": "IC50", "setting": "[1]", "value": "14.1 to 31.4", "unit": "µM"}, {"measurement": "IC50", "setting": "[2]", "value": 95.1, "unit": "µM"}, {"measurement": "melting point", "value": "217 to 219", "unit": "°C"}, {"measurement": "IC50", "setting": "MCF-7", "value": 19.2, "unit": "µM"}]}, {"smiles": "Cc1ccc(NC(=O)c2ccc(NC(=O)c3cccnc3)cc2)cc1", "note": "[Compound 7j, N-(4-(p-Tolylcarbamoyl)phenyl)nicotinamide]", "values": [{"measurement": "IC50", "setting": "HepG-2", "value": 14.1, "unit": "µM"}, {"measurement": "IC50", "setting": "HCT-116", "value": 15.1, "unit": "µM"}, {"measurement": "IC50", "setting": "[1]", "value": "14.1 to 31.4", "unit": "µM"}, {"measurement": "IC50", "setting": "[2]", "value": 84.9, "unit": "µM"}, {"measurement": "melting point", "value": "219 to 222", "unit": "°C"}, {"measurement": "IC50", "setting": "MCF-7", "value": 16.8, "unit": "µM"}]}, {"smiles": "Cc1ccc(NC(=O)c2ccc(NC(=O)c3cccnc3)cc2)c(C)c1", "note": "[Compound 7k, N-(4-((2,4-Dimethylphenyl)carbamoyl)phenyl)nicotinamide]", "values": [{"measurement": "IC50", "setting": "HepG-2", "value": 20.1, "unit": "µM"}, {"measurement": "IC50", "setting": "HCT-116", "value": 18.7, "unit": "µM"}, {"measurement": "IC50", "setting": "[1]", "value": "14.1 to 31.4", "unit": "µM"}, {"measurement": "IC50", "setting": "[2]", "value": 75.3, "unit": "µM"}, {"measurement": "melting point", "value": "254 to 256", "unit": "°C"}, {"measurement": "IC50", "setting": "MCF-7", "value": 17.1, "unit": "µM"}]}, {"smiles": "O=C(N/N=C/c1ccc([N+](=O)[O-])cc1)c1ccc(NC(=O)c2cccnc2)cc1", "note": "[Compound 11c, (E)-N-(4-(2-(4-Nitrobenzylidene)hydrazine-1-carbonyl)phenyl)-nicotinamide]", "values": [{"measurement": "IC50", "setting": "HepG-2", "value": 7.31, "unit": "µM"}, {"measurement": "Caspase 3 Conc.", "setting": "caspase-3", "value": 271.41, "unit": "pg/mL"}, {"measurement": "Caspase 3 Fold", "setting": "caspase-3", "value": 5.28, "unit": "fold"}, {"measurement": "BAX Conc.", "setting": "BAX", "value": 133.2, "unit": "pg/mL"}, {"measurement": "BAX Fold", "setting": "BAX", "value": 6.17, "unit": "fold"}, {"measurement": "IC50", "setting": "VEGFR-2", "value": 8.09, "unit": "µM"}, {"measurement": "TNF-α % inhibition", "setting": "TNF-α", "value": 31, "unit": "%"}, {"measurement": "IC50", "setting": "HCT-116", "value": 5.72, "unit": "µM"}, {"measurement": "IC50", "setting": "[1]", "value": "3.47 to 7.31", "unit": "µM"}, {"measurement": "IC50", "setting": "[2]", "value": 52.3, "unit": "µM"}, {"measurement": "Bcl-2 Conc.", "setting": "Bcl-2", "value": 2.81, "unit": "pg/mL"}, {"measurement": "Bcl-2 Fold", "setting": "Bcl-2", "value": 0.52, "unit": "fold"}, {"measurement": "IC50", "setting": "MCF-7", "value": 6.29, "unit": "µM"}]}, {"smiles": "O=C(N/N=C/c1ccccc1Cl)c1ccc(NC(=O)c2cccnc2)cc1", "note": "[Compound 11f, (E)-N-(4-(2-(2-Chlorobenzylidene)hydrazine-1-carbonyl)phenyl)-nicotinamide]", "values": [{"measurement": "IC50", "setting": "HepG-2", "value": 7.05, "unit": "µM"}, {"measurement": "Caspase 3 Conc.", "setting": "caspase-3", "value": 292.11, "unit": "pg/mL"}, {"measurement": "Caspase 3 Fold", "setting": "caspase-3", "value": 5.68, "unit": "fold"}, {"measurement": "BAX Conc.", "setting": "BAX", "value": 142.5, "unit": "pg/mL"}, {"measurement": "BAX Fold", "setting": "BAX", "value": 6.60, "unit": "fold"}, {"measurement": "IC50", "setting": "VEGFR-2", "value": 4.17, "unit": "µM"}, {"measurement": "TNF-α % inhibition", "setting": "TNF-α", "value": 60, "unit": "%"}, {"measurement": "IC50", "setting": "HCT-116", "value": 3.47, "unit": "µM"}, {"measurement": "IC50", "setting": "[1]", "value": "3.47 to 7.31", "unit": "µM"}, {"measurement": "IC50", "setting": "[2]", "value": 62.4, "unit": "µM"}, {"measurement": "Bcl-2 Conc.", "setting": "Bcl-2", "value": 2.25, "unit": "pg/mL"}, {"measurement": "Bcl-2 Fold", "setting": "Bcl-2", "value": 0.42, "unit": "fold"}, {"measurement": "IC50", "setting": "MCF-7", "value": 6.15, "unit": "µM"}]}, {"smiles": "CN(C)c1ccc(/C=N/NC(=O)c2ccc(NC(=O)c3cccnc3)cc2)cc1", "note": "[Compound 11g, (E)-N-(4-(2-(4-(Dimethylamino)benzylidene)hydrazine-1-carbonyl)phenyl)-nicotinamide]", "values": [{"measurement": "IC50", "setting": "HepG-2", "value": 6.42, "unit": "µM"}, {"measurement": "Caspase 3 Conc.", "setting": "caspase-3", "value": 324.36, "unit": "pg/mL"}, {"measurement": "Caspase 3 Fold", "setting": "caspase-3", "value": 6.31, "unit": "fold"}, {"measurement": "BAX Conc.", "setting": "BAX", "value": 160.2, "unit": "pg/mL"}, {"measurement": "BAX Fold", "setting": "BAX", "value": 7.42, "unit": "fold"}, {"measurement": "IC50", "setting": "VEGFR-2", "value": 6.12, "unit": "µM"}, {"measurement": "TNF-α % inhibition", "setting": "TNF-α", "value": 47, "unit": "%"}, {"measurement": "IC50", "setting": "HCT-116", "value": 4.8, "unit": "µM"}, {"measurement": "IC50", "setting": "[1]", "value": "3.47 to 7.31", "unit": "µM"}, {"measurement": "IC50", "setting": "[2]", "value": 70.1, "unit": "µM"}, {"measurement": "Bcl-2 Conc.", "setting": "Bcl-2", "value": 2.55, "unit": "pg/mL"}, {"measurement": "Bcl-2 Fold", "setting": "Bcl-2", "value": 0.48, "unit": "fold"}, {"measurement": "IC50", "setting": "MCF-7", "value": 5.73, "unit": "µM"}]}]}
